# Test results published in ChEMBL document CHEMBL5108032, “Innovation Experiences from Africa-Led Drug Discovery at the Holistic Drug Discovery and Development (H3D) Centre” (ACS Med Chem Lett, 2022).
# Test system: Mycobacterium tuberculosis
# Assay: Antimycobacterial activity against Mycobacterium tuberculosis H37Rv assessed as inhibition of visible growth incubated for 7 days
# Assay type: functional
# Details: 168 h, time 7 day
structure (smiles),measurement,value
Cc1nnc(-c2noc3c(F)c4c(cc23)CC2(C(=O)NC(=O)NC2=O)[C@H]2[C@H](C)O[C@H](C)CN42)o1,MIC,1.7 µM
